Laboratory results from patent publication US7022830B2, “Hepatitis C virus codon optimized non-structural NS3/4A fusion gene” (priority 2000, dated 2006).

Key:
[1] = tested on: NS3; experiment: NS3-specific IgG subclasses by EIA after primary and booster injection (TABLE 18); format: in vivo, mice; conditions: 10 μg rNS3 with 0.1 or 1.0 mg ribavirin at weeks 0 and 4; bled week six
Protocol: The mice were bled at week six and NS3-specific IgG subclasses were determined by EIA as described previously.

[2] = tested on: NS3-specific CD4+ T cell proliferation; experiment: in vitro recall assay, CD4+ T cell proliferation of lymph node cells, [3H] thymidine; format: in vivo, mice; conditions: 100 μg rNS3 mixed with 1 mg ribavirin s.c.; ten days; 96 h culture (FIG. 9)
Protocol: This assay can be used with any ribavirin derivative or combinations of ribavirin derivatives to determine the extent that a particular vaccine formulation modulates a cellular immune response. […] The mice were sacrificed ten days post-immunization and their lymph nodes were harvested and drained. In vitro recall assays were then performed. (See e.g., Hultgren et al., J Gen Virol. 79:2381-91 (1998) and Hultgren et al., Clin. Diagn. Lab. Immunol. 4:630-632 (1997)). The amount of CD4^+ T cell proliferation was determined at 96 h of culture by the incorporation of [^3H] thymidine.

[3] = tested on: HBsAg; experiment: EIA end point antibody titer to HBsAg, Engerix vaccine with or without ribavirin (TABLE 19); format: in vivo, mice; conditions: 1 mg ribavirin with 2 μg vaccine i.p.; booster week four, bled week six
Source text: (Engerix, SKB). […] A booster containing the same mixture was given on week four and all mice were bled on week six.

[4] = tested on: rNS3; experiment: ribavirin dose finding, rNS3-specific IgG by EIA (FIG. 8, TABLE 17); format: in vivo, mice
Protocol: The levels of antibody to the antigen were then determined by EIA.
A second set of experiments was also performed. […] The mice were bled at week six and rNS3-specific IgG levels were determined by EIA as described previously.

[5] = tested on: inositol mono-phosphate (IMP) dehydrogenase (IMPDH); conditions: cited from earlier work

NC(=O)c1ncn([C@@H]2O[C@H](CO)[C@@H](O)[C@H]2O)n1 [ribavirin, 1-β-D-ribofuranosyl-1,2,4-triazole-3-carboxamide]
effect on IgG subclass response [1]: does not change the IgG subclass response | T cell proliferative response versus 100 μg rNS3 in PBS [2]: much greater T cell proliferative response | effect on antibody response to Engerix vaccine [3]: enhanced the response | effect on antibody levels ([4]; higher doses (1-10 mg) ribavirin with 20 μg rNS3, week three (FIG. 8)): enhance antibody levels at week three | effect on antibody levels ([4]; low doses (<1 mg) ribavirin with 20 μg rNS3, week one (FIG. 8)): enhance antibody levels at week one | effect on antibody levels ([4]; low doses (<1 mg) ribavirin with 20 μg rNS3, week three (FIG. 8)): not at week three | mode of action on IMPDH [5]: competitive inhibitor
